Values quoted from earlier work as cited in patent US10875836B2, “Callyspongiolide, analogs thereof and uses thereof” (Purdue Research Foundation, priority 2016, dated 2020).
pIC50: −log10 of the molar value.

Legend:
[1] = tested on: human Jurkat J16 T lymphocytes
[2] = tested on: human Ramos B lymphocytes
[3] = tested on: A549 cell line
[4] = tested on: K562 cell line

Molecule | pIC50 [1] | pIC50 [2] | cytotoxicity [3] | cytotoxicity [4]
C[C@@H]1C/C=C\C(=O)O[C@H](/C=C/C#C/C=C/C(C)(C)[C@@H](O)c2cccc(O)c2Br)[C@@H](C)/C=C/[C@H](C)C[C@H](OC(N)=O)C1 [callyspongiolide] | 7.15 | 7.22 | – | –
callyazepin | – | – | moderate cytotoxicity | moderate cytotoxicity
